Experiment: Parallel artificial membrane permeability assay (PAMPA)
Type: in vitro ADME
Settings: GIT PAMPA Double Sink
Description: Simulated intestinal fluid (SIF) was prepared by dissolving 3 mM sodium taurocholate and 0.1% (w/v) pancreatin in phosphate buffer (final pH = 7.0). The solubility of acacetin was measured by adding excessive amounts of acacetin into glass vials containing 1.5 mL of water, pH 7.4 phosphate buffer, SGF, and SIF. […] The samples were centrifuged at 16,000× g for 5 min, and the supernatant was passed through a 0.20-μm syringe filter to remove excess acacetin. Further, the concentration of acacetin in the filtrate was determined using the LC-MS/MS method. […] Finally, the acacetin concentrations in the octanol and water layers were determined using the LC-MS/MS method. […] The PAMPA was conducted using a commercially available PAMPA kit (GIT PAMPA Double Sink; pION Inc., Massachusetts, MA, USA) according to the manufacturer's protocol. The permeability was calculated using pION PAMPA Explorer ver. 3.8 software (pION Inc., Massachusetts, MA, USA).

Papp: 0.411 ×10⁻⁶ cm/s
SMILES: CNC(=C[N+](=O)[O-])NCCSCc1ccc(CN(C)C)o1 [ranitidine, reference compound]

Reference: paper PMC7911516, “Investigation of the Factors Responsible for the Poor Oral Bioavailability of Acacetin in Rats: Physicochemical and Biopharmaceutical Aspects” (Pharmaceutics, 2021)
